# Assay results reported in patent publication US12187762B2, “Dithiolsaccharide mucolytic agents and uses thereof” (The Regents of the University of California, priority 2018, dated 2025).
# Entries after “also recorded” stand apart in the source; their conditions may differ.
# Legend:
# C57BL/6 mice = assay: In vivo safety assessment, mouse intranasal (pulmonary) delivery model
# Protocol: Body weights were recorded on days 1, 8 and 15. On day 15, BAL was performed and used for total and differential cell counts. Mice were euthanized on day 15, and whole lung was fixed in 10% formalin, embedded in paraffin, sectioned and H&E stained for subsequent injury scoring by board-certified lung pathologist (Table 1B provides scoring criteria). Scoring was done blindly. Sera were obtained from blood collected by cardiac puncture and tested for renal and metabolic function outcomes.
# Table 1. […] Safety outcomes in mouse pulmonary delivery model (A). […] Outcome measures of safety included body weight, renal function tests, measures of lung injury in bronchoalveolar lavage (BAL), and histologic appearance of tissue sections from formalin-fixed and paraffin-embedded lungs.
# [1] = Cone-and-plate rheology of elastic modulus (G′) in thiolated hydrogel substrate; details: for concentration needed to cause a 40% decrease in the G′ of the hydrogel (ΔG′=−40%): 30 min incubation, dose response 0.5-10 mM
# Protocol: 2.2. Preparation of thiolated hyaluronic acid hydrogel as a model substrate: Thiolated hyaluronic acid hydrogel (Glycosil®, ESI-BIO) was solubilized in 10% DMSO/75 mM NaCl/sodium phosphate pH 7.4 buffer, prepared using degassed water. Aliquots of 250 microliter of gel solution were distributed to 1.5 ml centrifuge tubes, sealed, and incubated overnight (˜18 hours) at room temperature to allow for slow oxidation and cross-linking of the hydrogel. Gels formed by this protocol typically yielded elastic moduli of 20-30 Pa, measured by cone-and-plate rheology.
# 2.3. Rheological measurements: A rheometer was employed to determine the effect of the compounds disclosed herein on the elastic modulus (G′) of ex vivo human sputum or model hydrogel substrate. The terms “elastic modulus”, G′, and the like refer to the elastic modulus as known in the art. Rheological measurements were made with AR2000 or DHR cone-and-plate rheometer (TA instruments), as known in the art. For sputum samples, ˜0.8 mL was used per assay, with 40 mm 2° geometry. For thiolated hydrogel samples, 0.25 mL was used per assay, with 40 mm ½° geometry. For timesweep recordings, a solvent trap with water as solvent was employed to minimize drying. Test compounds were dissolved in water and added at 10% v/v, to result in the final concentration of interest in the sample. The effect of test compound was measured by taking measurements every 2 min, for a period of 30 min. Normalized ratio % G′ was calculated by dividing the post treatment measurement of G′ at particular timepoint by pretreatment measurement of G′. Percent change in elastic modulus (% ΔG′) was calculated by comparing the measurement at 30 min to the initial pretreatment baseline.
# Rheological measurements with Compound 1, Compound 5, Compound 9 and N-acetylcysteine at concentrations between 0.5-10 mM were conducted in order to understand the dose dependence of mucolytic efficacy on concentration of the dithiol test agents (FIG. 3). Effective concentration that causes 40% change in G′ for each test agent was determined. All dithiols tested cause 40% change in G′ at concentrations <1 mM, while NAC requires ˜8-10× higher dose to achieve the same mucolytic effect.
# Mucolytic efficacy data was collected in cross-linked thiolated hydrogel model system for multiple enabled dithiolsaccharide compounds and N-acetylcysteine at 5 mM.
# [2] = tested on: primary human airway epithelial cells (AECs); assay: G6PD release cytotoxicity assay in airway epithelial cells at air-liquid interface; assay type: cell-based; details: Compound 1 disodium salt, apical exposure 1 hr at 37° C. at 5, 25 and 50 mM, 6 hr recovery; compared with PBS control
# Protocol: Briefly, primary tracheobronchial epithelial cells from ten donors were expanded in culture and differentiated at air-liquid interface for 21 days. Detailed cell culture protocols for airway epithelial cells can be found in Lachowicz-Scroggins et al, Cell Discov, 4, Article 7, 2018 and Widdicombe et al, Biotechniques, 39, 249-255, 2005. Compound 1 (disodium salt) was dissolved in PBS, added to apical surface of the cells at 5, 25 and 50 mM and left for 1 hr at 37° C. PBS was negative control. The apical and basolateral surfaces were washed with PBS, fresh media was added to basolateral side for 6 hr recovery period and collected for G6PD measurements. One control filter was harvested for full lysis with NP-40 lysis buffer to measure total G6PD content in cell lysates.
# G6PD (glucose 6-phosphase dehydrogenase) release is a common method of assessing the extent of cellular damage or death. G6PD was measured using Vybrant® Cytotoxicity Assay Kit (ThermoFisher Scientific) and expressed as percent released relative to the total G6PD content.
# [3] = mean ± SEM, BAL on day 15, intranasal 30 μL, 25 mM, 10 doses
# [4] = mean ± SEM, serum, intranasal 30 μL, 25 mM, 10 doses
compound,measurement,setting,value
"OC1C(O)[C@H](S)OC(CS)[C@@H]1O (stereo partly drawn) [Compound 1, 1,6-dithio-6-deoxy-β-D-galactopyranose]",systemic or lung toxicity compared to control saline,"C57BL/6 mice; intranasal 30 μL of 25 mM daily, 10 doses over 2 weeks, N=10 mice",did not cause any discernible systemic or lung toxicity
same,BAL Eosinophil %,C57BL/6 mice; [3],0 ± 0%
same,BAL Lymphocyte %,C57BL/6 mice; [3],0 ± 0.1%
same,BAL Macrophage %,C57BL/6 mice; [3],100 ± 0.1%
same,BAL Neutrophil %,C57BL/6 mice; [3],0 ± 0%
same,BAL total cell count,C57BL/6 mice; [3],(37.3 ± 7) × 10^4
same,Lung Injury Score,"C57BL/6 mice; mean ± SEM, blinded histology score 0-4 per Table 1B, day 15, intranasal 30 μL, 25 mM, 10 doses",0.4 ± 0.16
same,Body weight,"C57BL/6 mice; mean ± SEM, intranasal 30 μL, 25 mM, 10 doses over 2 weeks",18.6 ± 0.32 g
same,Blood urea nitrogen (renal function test),C57BL/6 mice; [4],25 ± 1.3 mg/dL
same,Creatinine (renal function test),C57BL/6 mice; [4],0.15 ± 0.01 mg/dL
same,concentration needed to cause a 40% decrease in the G′ of the hydrogel (ΔG′=−40%),[1],0.7 mM
same,% release of G6PD (cell toxicity),[2],minimal and similar to that of the Phosphate Buffered Saline (PBS) control; also recorded: low and similar to the PBS control
"OC1C(O)[C@H](O)C(CS)O[C@@H]1O[C@H]1OC(CS)[C@@H](O)C(O)C1O (stereo partly drawn) [Compound 5, 6,6′-dithio-6,6′-dideoxy-α,α-trehalose]",concentration needed to cause a 40% decrease in the G′ of the hydrogel (ΔG′=−40%),[1],1.0 mM
"CO[C@]1(CS)O[C@H](CS)C(O)C1O (stereo partly drawn) [Compound 9, Methyl-1,6-dithio-1,6-dideoxy-β-D-fructofuranoside]",concentration needed to cause a 40% decrease in the G′ of the hydrogel (ΔG′=−40%),[1],0.7 mM
"CC(=O)N[C@@H](CS)C(=O)O [NAC, N-acetylcysteine, reference compound]",concentration needed to cause a 40% decrease in the G′ of the hydrogel (ΔG′=−40%),[1],8 mM
same,dose of NAC relative to dithiols needed to achieve the same mucolytic effect (40% change in G′),[1]; fold higher dose than dithiols,8-10 ×
